Laboratory results as given in patent US10610535B2 (The Regents of the University of California, priority 2005, dated 2020).

How the values were obtained:
[1] = molecular target: ERβ as compared to ERα (Homo sapiens, UniProt Q92731); conditions: cited from earlier work
[2] = test system: SJL mice with adoptive EAE; conditions: followed for the first 27 days; cited from earlier work
[3] = Serum estriol levels (ELISA) in oral estriol crossover trial; assay type: in vivo, human; conditions: oral estriol 8 milligrams/day, treatment and re-treatment, MS patients
Procedure: (§1) Subjects were evaluated using the Kurtzke's Expanded Disability Status Scale (EDSS) by the same neurologist (RV) throughout the study. At each visit the study nurse (RK) administered the paced auditory serial addition test (PASAT) and the 9-hole peg test. Blood was drawn for SMA12, cholesterol panel, blood counts and hormone levels (estriol, estradiol, estrone, LH, FSH, cortisol, progesterone). Estriol levels in serum were determined by ELISA according to manufacturer's instructions (Oxford Biomedical, Oxford, Mich.).

[4] = test system: women with clinically definite MS; assay: Tolerability and laboratory safety measures, estriol trial and extension phase; assay type: in vivo, human; conditions: oral estriol 8 milligrams/day
Text: Twelve female patients with clinically definite MS were enrolled. Six had RR disease and six had SP disease. All six RR and four of six SP patients completed the entire 18 month study period. […] Of the ten patients who completed the entire study, the mean age was 44 years (range 28 to 50 years) and the mean EDSS was 3.3 (range 1.0 to 6.5). The mean EDSS score for the SP patients was 5.0 while the mean EDSS for the RR patients was 2.2. The 18 month trial was extended in RR patients whereby treatment was re-instituted. Medication. For the initial treatment phase, micronized, U.S.P. graded estriol powder (Medisca, Inc., Plattsburg, N.Y.) was put into capsules by UCLA Pharmaceutical Services.
as §1
Indeed, estrogen cannot be given for a lengthy period of time in an “unopposed” fashion in any woman with a uterus. […]

[5] = test system: DTH responses to tetanus and candida; parameters: species or system human; conditions: in vivo
[6] = test system: IFNγ in peripheral blood mononuclear cells (PBMCs); assay: IFNγ levels by RT-PCR of unstimulated PBMCs derived ex vivo; assay type: in vivo, human
Procedure: Peripheral blood mononuclear cells (PBMCs) were isolated from heparinized venous blood and cryopreserved. PBMCs were thawed in parallel from a given patient during the two pre-treatment timepoints and the two treatment timepoints. Total RNA was isolated, DNA was removed and mRNA was reverse transcribed. Both IFN-γ and actin were amplified from the same cDNA, however, the cDNA was diluted 1:9 prior to amplification for actin. Amplification was done in 1 mM […] using IFN.γ and actin primer sequences (Life Technologies, Rockville, Md.). Complementary DNA was amplified for 35 cycles: 45″ @ 95° C., 60″ @ 54° C. and 45″ @ 72° C. PCR products were separated on a 1.5% agarose gel containing ethidium bromide and densitometry performed.

[7] = test system: women with clinically definite MS; assay: Clinical measures: EDSS, 9-hole peg test, PASAT, relapses; assay type: in vivo, human
Procedure: as §1

[8] = test system: post-partum patient with relapsing remitting multiple sclerosis; assay: Case of post-partum relapsing remitting MS patient; assay type: in vivo, human
Procedure: A patient was diagnosed as having relapsing remitting multiple sclerosis. Following the delivery of their first child (now […]), the patient was treated only with Copaxone and relapsed at 6 weeks. Following the delivery of their second child (now […]), the patient was again treated with Copaxone alone and again relapsed, this time at 4.5 months. Following a subsequent pregnancy, the patient was treated with 8 mg estriol/day in an attempt to prevent their post partum relapses.
Following the birth of the patient's third child (now 6 months), the patient resumed treatment with Copaxone as before. However, on day 10 post-partum they began taking estriol 8 mg/daily in an oral dosage form. […] Since monthly brain MRIs with gadolinium to detect enhancing MS lesions are more sensitive for inflammatory disease activity than relapses, the patient underwent serial monthly MRIs at post partum months 4, 5, and 6.
The patient doubled the progesterone minipill for 2 weeks to stabilize the endometrium. Otherwise no adverse events have been reported.

[9] = test system: DTH responses to tetanus and candida; conditions: cited from earlier work
[10] = test system: women with clinically definite MS; conditions: pilot clinical trial, non-pregnant female MS patients; cited from earlier work
[11] = test system: peripheral blood mononuclear cells; conditions: pilot clinical trial, non-pregnant female MS patients; cited from earlier work
[12] = test system: EAE mice; conditions: cited from earlier work
[13] = test system: women with clinically definite MS; assay: Serial cerebral MRI: gadolinium enhancing lesions and T2 lesion volumes
[14] = 90 day release pellets of 5 or 15 milligrams estriol
[15] = RR patients, first three months of treatment
[16] = RR patients, next three months of treatment

Sequence of ERβ as compared to ERα (Q92731 whole entry): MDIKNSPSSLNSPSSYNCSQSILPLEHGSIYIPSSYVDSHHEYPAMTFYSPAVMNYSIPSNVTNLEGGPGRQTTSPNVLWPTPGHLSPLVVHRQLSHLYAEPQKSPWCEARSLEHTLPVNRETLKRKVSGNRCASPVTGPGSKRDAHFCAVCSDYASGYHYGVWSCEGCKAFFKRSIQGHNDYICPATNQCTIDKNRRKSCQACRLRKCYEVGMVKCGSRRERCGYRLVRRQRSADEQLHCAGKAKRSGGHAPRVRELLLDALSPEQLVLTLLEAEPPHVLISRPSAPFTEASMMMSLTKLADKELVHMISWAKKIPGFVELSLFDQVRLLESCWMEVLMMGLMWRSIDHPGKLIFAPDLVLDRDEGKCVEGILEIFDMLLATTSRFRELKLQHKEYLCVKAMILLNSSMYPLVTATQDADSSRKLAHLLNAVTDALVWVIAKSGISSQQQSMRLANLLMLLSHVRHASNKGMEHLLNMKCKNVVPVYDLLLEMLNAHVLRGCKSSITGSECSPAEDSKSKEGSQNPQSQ

With `C=Cc1cc(O)cc2nc(-c3ccc(O)c(F)c3)oc12` [WAY-202041] as the compound, how does the “Selectivity for ERβ as compared to ERα” value [1] read?
Its value is 200 fold.

What about the “Effect in adoptive EAE” value [2] of the same compound?
The value was “no effect”.

Which results are given for `C[C@]12CC[C@@H]3c4ccc(O)cc4CC[C@H]3[C@@H]1CC(O)C2O` (some centres unmarked) [estriol, estra-1,3,5(10)-triene-3,16,17-triol]?
Serum estriol levels [3]: approximated those observed in women who were six months pregnant; Laboratory measures including LH, FSH, cortisol, progesterone, estradiol and estrone [4]: no significant alterations; Tolerability ([4]; six months): well tolerated with only menstrual cycle abnormalities; DTH responses to candida [5]: decreased less dramatically and more variably; DTH responses to tetanus [5]: significantly, P=−0.006, decreased; Levels of IFNγ ([6]; four SP patients): no decrease; Levels of IFNγ ([6]; six RR patients, study month 9 (three months of treatment) vs pretreatment): variably decreased; Levels of IFNγ ([6]; six RR patients, study month 12 (six months of treatment) vs pretreatment): significantly decreased; Hole Peg Test Score ([7]; 4 RR, L, 9 mo., Estriol Treatment): 24.3; Hole Peg Test Score ([7]; 4 RR, L, 12 mo., Estriol Treatment): 23.3; Hole Peg Test Score ([7]; 4 RR, L, 15 mo., Post Treatment): 23.0; Hole Peg Test Score ([7]; 4 RR, L, 18 mo., Post Treatment): 22.7; Hole Peg Test Score ([7]; 4 RR, R, 9 mo., Estriol Treatment): 22.5; Hole Peg Test Score ([7]; 4 RR, R, 12 mo., Estriol Treatment): 21.5; Hole Peg Test Score ([7]; 4 RR, R, 15 mo., Post Treatment): 21.0; Hole Peg Test Score ([7]; 4 RR, R, 18 mo., Post Treatment): 21.4; EDSS Scores ([7]; 4 SP, 9 mo., Estriol Treatment): 4.9; EDSS Scores ([7]; 4 SP, 12 mo., Estriol Treatment): 5.0; EDSS Scores ([7]; 4 SP, 15 mo., Post Treatment): 5.1; EDSS Scores ([7]; 4 SP, 18 mo., Post Treatment): 5.0; Hole Peg Test Score ([7]; 4 SP, L, 9 mo., Estriol Treatment): 22.7; Hole Peg Test Score ([7]; 4 SP, L, 12 mo., Estriol Treatment): 24.8; Hole Peg Test Score ([7]; 4 SP, L, 15 mo., Post Treatment): 26.7; Hole Peg Test Score ([7]; 4 SP, L, 18 mo., Post Treatment): 25.0; Hole Peg Test Score ([7]; 4 SP, R, 9 mo., Estriol Treatment): 30.2; Hole Peg Test Score ([7]; 4 SP, R, 12 mo., Estriol Treatment): 31.7; Hole Peg Test Score ([7]; 4 SP, R, 15 mo., Post Treatment): 29.4; Hole Peg Test Score ([7]; 4 SP, R, 18 mo., Post Treatment): 34.0; EDSS Scores ([7]; 6 RR, 9 mo., Estriol Treatment): 1.5; EDSS Scores ([7]; 6 RR, 12 mo., Estriol Treatment): 1.7; EDSS Scores ([7]; 6 RR, 15 mo., Post Treatment): 1.8; EDSS Scores ([7]; 6 RR, 18 mo., Post Treatment): 1.8; Improvement in PASAT scores ([7]; RR patients, during treatment as compared to baseline): 14.0%; Relapses ([7]; SP patients, whole study): No relapses; EDSS and 9 Hole Peg Test scores ([7]; during the study): no significant changes; Relapses ([7]; six RR patients, post treatment period): two; Relapses ([7]; six RR patients, re-treatment period): none; Relapses ([7]; six RR patients, treatment period): one; Post-partum relapses ([8]; estriol 8 mg/daily oral from day 10 post-partum, with Copaxone, third child): no relapses for 6 months; Adverse events ([8]; estriol 8 mg/daily with Copaxone and norethindrone 0.35 mg daily): increased irregular menstrual bleeding; EDSS ([8]; estriol 8 mg/daily with Copaxone, 6 months post-partum): 1; Uterine ultrasounds ([8]; month 3 and 6): thin, not thick, endometrium; Gadolinium enhancement on brain MRI ([8]; post partum month 4, estriol with Copaxone): no enhancement; Gadolinium enhancement on brain MRI ([8]; post partum month 5, estriol with Copaxone): only one small enhancing lesion; Gadolinium enhancement on brain MRI ([8]; post partum month 6, estriol with Copaxone): No new enhancement; T2 lesion load ([8]; post partum months 4-6, estriol with Copaxone): stable throughout; Delayed type hypersensitivity response (prototypic in vivo Th1 response) [9]: reduced; Reduction of gadolinium-enhancing lesions on serial brain MRIs [10]: > 80%; TH2 (IL5, IL10) cytokine production by peripheral blood mononuclear cells [11]: increased; Th1 (TNFα, IFNγ) cytokine production by peripheral blood mononuclear cells [11]: reduced; EAE disease severity ([12]; 90 day release pellets of 5 or 15 milligrams estriol, before or after disease onset): reduced; Inflammation and demyelination [12, 14]: reduced inflammation and demyelination; Production of the Th2 cytokine IL-10 [12, 14]: increase production; Onset of clinical EAE ([12]; late pregnancy levels of estriol or supraphysiological doses of estradiol (5 times pregnancy levels)): delay the onset; Change in median T2 lesion volumes (lower) ([13]; RR group, four month re-treatment extension period): 2.0%; Change in median T2 lesion volumes (higher) ([13]; RR group, six month post treatment period): 7.4%; Change in median T2 lesion volumes ([13]; RR group, six month treatment period): 0%; Decrease in median total enhancing lesion numbers [13, 15]: 82%; Decrease in median total enhancing lesion volumes [13, 15]: 79%; Median total enhancing lesion volumes and numbers ([13]; RR patients, last three months of the post treatment period): returning to near baseline levels; Decrease in median total enhancing lesion numbers [13, 16]: 82%; Decrease in median total enhancing lesion volumes [13, 16]: 82%; Total volume and number of enhancing lesions ([13]; all ten MS patients (6RR, 4SP), treatment period vs six month pretreatment baseline): decreased
